The results in this text go back to patent US20260001875A1, “AMINOPYRIMIDINYL DERIVATIVES FOR THE TREATMENT OF PARKINSON'S DISEASE” (UNIVERSITY OF DUNDEE, priority 2022, published 2026).

Assay [1] has as its system Rab10 pThr73. The experiment in a line: Rab10 Thr73 dephosphorylation (immunoblot) in LRRK2^G2019S MEFs. The assay is classed as cell-based. Particulars: Mus musculus, read-out: pRab10 inhibited in LRRK2^G2019S MEFs. For orientation: A western blot detects proteins with antibodies after separation by electrophoresis.
The target in another assay is T1, LRRK2^G2019S (Mus musculus, UniProt Q5S006, G2019S).
T1 construct: endogenous in cells; host or cells: LRRK2[G2019S] mouse embryonic fibroblasts (MEFs)
The experiment in a line: Western blot LRRK2 degradation in LRRK2^G2019S MEFs. The assay is classed as cell-based. Particulars: dose response, 4 h treatment; for Dmax: read-out: Dmax on G2019S MEFs. The procedure:
(§1) The second-generation PROTACs were tested in parallel with the first generation PROTACs SD75, SD82, and SD100. The compounds were tested at 33 nM or […] concentrations for 4 hours or 24 hours, running two biological replicates per condition and achieving quantifications representative of both replicates. Analysis by quantitative immunoblotting was performed with readouts of the total LRRK2 (antibody recognizes epitope in C-terminus of protein), Rab10 pThr73 (physiological substrate) and LRRK2 pSer935 (biomarker phosphorylation site).
(§2) Primary MEFs were generated as described in a previous study (Wiggin et al., Mol. Cell Biol. 2002 April; 22(8):2871-81.). Briefly, the uterine horn was collected from adult female mice at day E12.5 and transferred to a 10 cm tissue culture dish containing cold PBS. Two forceps were used to tear the yolk sacs to isolate each embryo. Forceps were cleaned thoroughly with 70% ethanol between each embryo isolation. The embryos were culled, and a tissue piece was collected in a PCR tube for genotyping. The red tissue of the embryo, which grows to become the heart and liver, was removed. The remainder of the embryo was minced with a scalpel blade and incubated with 7.5 ml trypsin-EDTA solution for 10 minutes in a 37° C. tissue culture CO2 incubator. The dish was removed from the incubator and checked under a light microscope for single cells. 7.5 ml complete media was added to the trypsinised cells, and the cell suspension was transferred to a 15 ml Falcon tube, centrifuged at 1200 rpm for 5 minutes at room temperature. The trypsin was aspirated, the cell pellet was resuspended in 5 ml fresh complete media, and the cell suspension was plated in a 60 mm tissue culture dish and incubated in a 37° C., 5% CO2 tissue culture incubator. The MEFs at this stage were considered as passage 0 and were passaged and expanded for experimental use once the genotype was confirmed by allelic sequencing and immunoblotting. MEFs were cultured in Dulbecco's modified Eagle medium (DMEM) containing 10% (v/v) fetal bovine serum (FBS), 2 mM L-glutamine, 100 U/ml penicillin, and 100 μg/ml streptomycin supplemented with 1× non-essential amino acids and 1 mM sodium pyruvate.
Culturing and passaging of adherent cell lines were carried out using aseptic technique in CL1 or CL2 (for PBMC isolation) biological safety cabinets. All cells were incubated in a 37° C. incubator with 5% CO2. Cell lines were regularly tested for mycoplasma contamination. For western blot assay, the cells were seeded in 6-well plates. […] The cells were immediately placed on ice and were scraped and collected into 1.5 ml Eppendorf tubes. Cell lysates were incubated on ice for 10 minutes prior to centrifugation at 15,000 g at 4° C. for 15 minutes. The cell pellet was discarded, and supernatant was collected for analysis by quantitative immunoblotting. For long term storage, the supernatant was flash frozen and stored at −80° C. Protein concentrations of cell lysates were determined using the Bradford assay.
Cell lysates containing a quarter of a volume of 4× NuPAGE LDS sample buffer (NP0007) supplemented with 5% β-mercaptoethanol, were heated at 95° C. for 5 minutes. 15 to 20 μg of samples were loaded onto pre-cast 4-12% Bis-Tris midi 20W or 26W gels (Thermofisher Scientific®, Cat #WG1402BOX or WG1403BOX) and resolved at 130 V for 2 hours with NuPAGE MOPS SDS running buffer (Thermofisher Scientific® Cat #NP0001-02). Proteins were electrophoretically transferred onto a 0.45 μm nitrocellulose membrane (GE Healthcare, Amersham Protran® Supported 0.45 mm NC) at 90 V for 90 min on ice in transfer buffer (48 mM Tris base and 39 mM glycine supplemented with 20% methanol). The transferred membrane was blocked with 5% (w/v) skim milk powder dissolved in tris-buffered saline with tween (TBS-T) (50 mM Tris base, 150 mM sodium chloride (NaCl), 0.1% (v/v) Tween-20) at room temperature for 1 hour.

Another assay addresses T2, LRRK2^WT (Mus musculus, UniProt Q5S006).
T2 construct: endogenous in cells; host or cells: primary wild-type mouse embryonic fibroblasts (MEFs)
Description: Western blot LRRK2 degradation in WT MEFs. The assay is classed as cell-based. Particulars: dose response, 4 h treatment; for Dmax: read-out: Dmax on WT MEFs. The procedure: as §1, with “Western blot degradation assays for the LRRK2 protacs were performed with WT and PD-associated LRRK2 [G2019S] mouse embryonic fibroblasts (MEFs). The second-generation” for “The second-generation”
as §2
Culturing and passaging of adherent cell lines were carried out using aseptic technique in CL1 or CL2 (for PBMC isolation) biological safety cabinets. All cells were incubated in a 37° C. incubator with 5% CO2. Cell lines were regularly tested for mycoplasma contamination. For western blot assay, the cells were seeded in 6-well plates. After treating with testing compounds at indicated concentrations and time period, the media was removed and the cells were washed with PBS and lysed in 100 μl ice-cold complete lysis buffer containing 50 mM Tris-HCl pH 7.4, 1 mM EGTA, 10 mM 2-glycerophosphate, 50 mM sodium fluoride, 5 mM sodium pyrophosphate, 270 mM sucrose, supplemented with 1 μg/ml microcystin-LR, 1 mM sodium orthovanadate, complete EDTA-free protease inhibitor cocktail (Roche) and 1% (v/v) Triton X-100. The cells were immediately placed on ice and were scraped and collected into 1.5 ml Eppendorf tubes. Cell lysates were incubated on ice for 10 minutes prior to centrifugation at 15,000 g at 4° C. for 15 minutes. The cell pellet was discarded, and supernatant was collected for analysis by quantitative immunoblotting. For long term storage, the supernatant was flash frozen and stored at −80° C. Protein concentrations of cell lysates were determined using the Bradford assay.
Cell lysates containing a quarter of a volume of 4× NuPAGE LDS sample buffer (NP0007) supplemented with 5% β-mercaptoethanol, were heated at 95° C. for 5 minutes. […]

The subject of assay [2] is Rab10 pThr73. Description: Rab10 Thr73 dephosphorylation (immunoblot) in LRRK2^G2019S MEFs. Format: cell-based, mouse. Conditions: Mus musculus; for inhibition at 1 µM: read-out: pRab10 inhibited in LRRK2^G2019S MEFs; for EC50: dose response, 4 h treatment, read-out: G2019S MEFs-pRab10-dephosphorylation EC50.
For assay [3], the system named is Rab10 pThr73. Description: Rab10 Thr73 dephosphorylation (immunoblot) in WT MEFs. The assay is classed as cell-based, mouse. Particulars: Mus musculus; for inhibition at 0.033 µM / inhibition at 1 µM: read-out: pRab10 inhibited in WT MEFs; for EC50: dose response, 4 h treatment, read-out: WT MEFs pRab10-dephosphrylation EC50. An outline of the steps: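 Wild-type mouse embryonic fibroblasts in 6-well plates were treated with LRRK2 PROTACs, with two biological replicates per condition. Cells were washed in PBS and lysed on ice in buffer containing phosphatase and protease inhibitors plus 1% Triton X-100, then clarified at 15,000 g. Rab10 Thr73 phosphorylation was measured by quantitative immunoblotting of 15 to 20 μg protein on 4-12% Bis-Tris gels.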

T1 sequence (Q5S006 whole entry G2019S): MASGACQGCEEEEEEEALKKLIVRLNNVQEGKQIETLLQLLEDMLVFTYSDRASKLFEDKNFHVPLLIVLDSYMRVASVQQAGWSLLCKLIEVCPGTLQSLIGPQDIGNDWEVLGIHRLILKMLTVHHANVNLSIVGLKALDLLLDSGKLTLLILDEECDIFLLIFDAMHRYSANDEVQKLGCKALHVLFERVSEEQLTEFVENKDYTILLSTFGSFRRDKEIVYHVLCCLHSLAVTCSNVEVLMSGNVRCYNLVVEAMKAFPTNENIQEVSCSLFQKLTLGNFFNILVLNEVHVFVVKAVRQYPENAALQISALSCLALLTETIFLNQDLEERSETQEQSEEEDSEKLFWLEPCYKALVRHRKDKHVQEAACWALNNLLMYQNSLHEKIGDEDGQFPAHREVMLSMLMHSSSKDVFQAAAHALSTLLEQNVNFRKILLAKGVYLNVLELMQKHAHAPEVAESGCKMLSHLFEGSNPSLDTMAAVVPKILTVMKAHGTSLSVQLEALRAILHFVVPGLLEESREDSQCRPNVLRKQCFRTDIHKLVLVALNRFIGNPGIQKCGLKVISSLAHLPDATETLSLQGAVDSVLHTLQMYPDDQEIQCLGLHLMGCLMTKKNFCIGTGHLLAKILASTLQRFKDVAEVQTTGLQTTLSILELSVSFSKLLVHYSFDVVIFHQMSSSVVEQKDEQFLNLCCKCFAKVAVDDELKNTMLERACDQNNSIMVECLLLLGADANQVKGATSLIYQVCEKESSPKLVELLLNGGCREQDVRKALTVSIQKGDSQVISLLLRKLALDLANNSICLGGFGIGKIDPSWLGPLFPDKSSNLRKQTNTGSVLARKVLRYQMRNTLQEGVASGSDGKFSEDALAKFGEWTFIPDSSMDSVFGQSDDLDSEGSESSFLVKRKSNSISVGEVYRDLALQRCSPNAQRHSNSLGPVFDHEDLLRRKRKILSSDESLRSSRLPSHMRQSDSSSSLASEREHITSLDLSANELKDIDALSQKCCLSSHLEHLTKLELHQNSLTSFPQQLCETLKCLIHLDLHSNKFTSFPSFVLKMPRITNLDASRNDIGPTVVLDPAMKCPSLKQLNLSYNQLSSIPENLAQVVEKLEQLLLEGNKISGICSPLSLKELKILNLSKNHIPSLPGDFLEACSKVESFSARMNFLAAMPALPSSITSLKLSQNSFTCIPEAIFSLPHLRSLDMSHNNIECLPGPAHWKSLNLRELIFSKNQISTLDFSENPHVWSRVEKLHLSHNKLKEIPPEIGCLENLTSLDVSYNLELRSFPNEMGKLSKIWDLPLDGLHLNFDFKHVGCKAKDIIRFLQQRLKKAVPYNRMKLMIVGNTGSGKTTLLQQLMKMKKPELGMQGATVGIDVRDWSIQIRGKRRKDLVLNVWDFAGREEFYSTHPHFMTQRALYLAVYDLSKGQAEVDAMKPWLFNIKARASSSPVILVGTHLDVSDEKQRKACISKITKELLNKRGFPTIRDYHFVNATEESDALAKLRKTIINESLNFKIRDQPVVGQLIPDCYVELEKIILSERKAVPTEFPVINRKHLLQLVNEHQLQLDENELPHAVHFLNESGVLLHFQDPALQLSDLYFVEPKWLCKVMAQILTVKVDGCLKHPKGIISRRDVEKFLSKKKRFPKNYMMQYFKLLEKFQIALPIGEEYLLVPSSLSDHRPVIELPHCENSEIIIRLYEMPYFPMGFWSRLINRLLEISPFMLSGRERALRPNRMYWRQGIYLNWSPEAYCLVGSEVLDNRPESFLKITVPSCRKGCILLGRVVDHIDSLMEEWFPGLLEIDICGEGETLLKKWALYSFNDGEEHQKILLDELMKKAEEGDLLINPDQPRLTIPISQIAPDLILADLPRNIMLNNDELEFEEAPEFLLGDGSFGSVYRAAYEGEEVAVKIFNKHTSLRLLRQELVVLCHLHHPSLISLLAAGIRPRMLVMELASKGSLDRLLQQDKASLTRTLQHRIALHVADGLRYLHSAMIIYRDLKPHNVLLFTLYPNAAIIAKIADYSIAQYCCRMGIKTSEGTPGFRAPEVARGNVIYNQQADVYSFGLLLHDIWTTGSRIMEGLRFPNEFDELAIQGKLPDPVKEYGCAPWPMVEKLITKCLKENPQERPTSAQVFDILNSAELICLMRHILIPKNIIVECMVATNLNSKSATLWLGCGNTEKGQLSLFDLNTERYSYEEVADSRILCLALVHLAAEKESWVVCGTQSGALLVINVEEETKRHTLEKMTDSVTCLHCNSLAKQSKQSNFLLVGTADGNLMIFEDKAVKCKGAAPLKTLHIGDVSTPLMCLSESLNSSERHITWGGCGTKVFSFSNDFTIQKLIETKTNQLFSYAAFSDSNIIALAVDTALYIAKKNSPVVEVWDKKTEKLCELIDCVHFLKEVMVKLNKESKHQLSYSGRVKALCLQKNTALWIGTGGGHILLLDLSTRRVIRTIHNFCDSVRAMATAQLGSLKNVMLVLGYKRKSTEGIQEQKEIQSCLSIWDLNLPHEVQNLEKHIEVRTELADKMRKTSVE
T2 sequence (Q5S006 whole entry): as the sequence (Q5S006 whole entry G2019S) above, with S2019G counted along it

Consider `CNc1nc(Nc2ccc(OC3CCN(C[C@H]4CC[C@H](CSC(C)(C)C(NC(=O)C5(F)CC5)C(=O)N5C[C@H](O)C[C@H]5C(=O)NCc5ccc(-c6scnc6C)cc5)CC4)CC3)cc2OC)ncc1Cl` (stereo partly drawn) [XL02017, (2S,4R)-1-((S)-3-((((1R,4S)-4-((4-(4-((5-chloro-4-(methylamino)pyrimidin-2-yl)amino)-3-methoxyphenoxy)piperidin-1-yl)methyl)cyclohexyl)methyl)thio)-2-(1-fluorocyclopropane-1-carboxamido)-3-methylbutanoyl)-4-hydroxy-N-(4-(4-methylthiazol-5-yl)benzyl)pyrrolidine-2-carboxamide], for which the inhibition at 0.033 µM in the assay with Rab10 pThr73 [1] (33 nM/4 h treatment) lay within 0 to 90%; in the assay on Rab10 pThr73 [1] (33 nM/24 h treatment), 30 to 90%; in the assay with Rab10 pThr73 [3] (33 nM/4 h treatment) it was 0 to 70%; in the assay with Rab10 pThr73 [3] (33 nM/24 h treatment), 0 to 80%. For the same molecule, the DC50 – broadly, the concentration giving 50% degradation – on LRRK2^G2019S worked out at 0.022 µM; at LRRK2^WT it was 0.044 µM. The Dmax (as a rule, the greatest extent of degradation seen) at LRRK2^G2019S is 79%; at LRRK2^WT, 68%. In addition, the inhibition at 1 µM in the assay with Rab10 pThr73 [2] (1 μM/4 h treatment) was 10 to 100%; in the assay on Rab10 pThr73 [2] (1 μM/24 h treatment) it was 80 to 100%; in the assay with Rab10 pThr73 [3] (1 μM/4 h treatment) it was 80 to 100%; with Rab10 pThr73 [3] (1 μM/24 h treatment), 80 to 100%. The EC50 (commonly the concentration that produces a half-maximal response) in the assay on Rab10 pThr73 [2] stood at 0.025 µM; with Rab10 pThr73 [3] it was 0.083 µM.

Regarding `CNc1nc(Nc2ccc(C(=O)N3CCC4(CCN(C[C@H]5CC[C@H](CSC(C)(C)C(NC(=O)C6(F)CC6)C(=O)N6C[C@H](O)C[C@H]6C(=O)NCc6ccc(-c7scnc7C)cc6)CC5)CC4)CC3)cc2OC)ncc1Cl` (stereo partly drawn) [XL02038, (2S,4R)-1-((S)-3-((((1R,4S)-4-((9-(4-((5-chloro-4-(methylamino)pyrimidin-2-yl)amino)-3-methoxybenzoyl)-3,9-diazaspiro[5.5]undecan-3-yl)methyl)cyclohexyl)methyl)thio)-2-(1-fluorocyclopropane-1-carboxamido)-3-methylbutanoyl)-4-hydroxy-N-(4-(4-methylthiazol-5-yl)benzyl)pyrrolidine-2-carboxamide], the inhibition at 0.033 µM in the assay on Rab10 pThr73 [1] (33 nM/4 h treatment) lay within 0 to 90%; in the assay with Rab10 pThr73 [1] (33 nM/24 h treatment), 30 to 90%; in the assay with Rab10 pThr73 [3] (33 nM/4 h treatment), 0 to 70%; with Rab10 pThr73 [3] (33 nM/24 h treatment), 0 to 80%. Further, the Dmax was found to be 79% at LRRK2^G2019S and 65% at LRRK2^WT. Besides, the inhibition at 1 µM with Rab10 pThr73 [2] (1 μM/4 h treatment) is 10 to 100%; in the assay with Rab10 pThr73 [2] (1 μM/24 h treatment), 80 to 100%; in the assay on Rab10 pThr73 [3] (1 μM/4 h treatment) it was 80 to 100%; in the assay on Rab10 pThr73 [3] (1 μM/24 h treatment), 80 to 100%. The EC50 was found to be 0.01 µM in the assay on Rab10 pThr73 [2] and 0.014 µM in the assay with Rab10 pThr73 [3].

With `CNc1nc(Nc2ccc(C(=O)N3CCN(C[C@H]4CC[C@H](CSC(C)(C)[C@H](NC(=O)C5(F)CC5)C(=O)N5C[C@H](O)CC5C(=O)NCc5ccc(-c6scnc6C)cc5F)CC4)CC3)cc2OC)ncc1Cl` (stereo partly drawn) [XL02047, (2S,4R)-1-(®-3-((((1r,4R)-4-((4-(4-((5-chloro-4-(methylamino)pyrimidin-2-yl)amino)-3-methoxybenzoyl)piperazin-1-yl)methyl)cyclohexyl)methyl)thio)-2-(1-fluorocyclopropane-1-carboxamido)-3-methylbutanoyl)-N-(2-fluoro-4-(4-methylthiazol-5-yl)benzyl)-4-hydroxypyrrolidine-2-carboxamide], the inhibition at 0.033 µM in the assay with Rab10 pThr73 [1] (33 nM/4 h treatment) lay in the range of 0 to 90%; in the assay on Rab10 pThr73 [1] (33 nM/24 h treatment) it was 30 to 90%; in the assay with Rab10 pThr73 [3] (33 nM/4 h treatment), 0 to 70%; in the assay with Rab10 pThr73 [3] (33 nM/24 h treatment) it was 0 to 80%. Besides, the DC50 at LRRK2^G2019S was found to be 0.06 µM; at LRRK2^WT it was 0.045 µM. Also, the Dmax on LRRK2^G2019S is 79%; on LRRK2^WT, 78%. The inhibition at 1 µM with Rab10 pThr73 [2] (1 μM/4 h treatment) was in the range of 10 to 100%; in the assay with Rab10 pThr73 [2] (1 μM/24 h treatment), 80 to 100%; with Rab10 pThr73 [3] (1 μM/4 h treatment) it was 80 to 100%; in the assay with Rab10 pThr73 [3] (1 μM/24 h treatment) it was 80 to 100%. Moreover, the values for the EC50 with Rab10 pThr73 [2] and in the assay with Rab10 pThr73 [3] were 0.073 µM and 0.228 µM, respectively.

Take `CNc1nc(Nc2ccc(C(=O)N3CCN(C[C@H]4CO[C@H](CSC(C)(C)[C@@H](NC(=O)C5(F)CC5)C(=O)N5C[C@H](O)C[C@H]5C(=O)NCc5ccc(-c6scnc6C)cc5)CO4)CC3)cc2OC)ncc1Cl` [XL02098, (2S,4R)-1-((S)-3-((((2S,5S)-5-((4-(4-((5-chloro-4-(methylamino)pyrimidin-2-yl)amino)-3-methoxybenzoyl)piperazin-1-yl)methyl)-1,4-dioxan-2-yl)methyl)thio)-2-(1-fluorocyclopropane-1-carboxamido)-3-methylbutanoyl)-4-hydroxy-N-(4-(4-methylthiazol-5-yl)benzyl)pyrrolidine-2-carboxamide]: the DC50 on LRRK2^G2019S was determined as 0.045 µM; on LRRK2^WT it was 0.05 µM. Moreover, the figures for the Dmax at LRRK2^G2019S and on LRRK2^WT were 81% and 59%, respectively. In addition, the inhibition at 1 µM in the assay with Rab10 pThr73 [2] (1 μM/4 h treatment) lay in the range of 80 to 100%; in the assay with Rab10 pThr73 [3] (1 μM/4 h treatment), 75 to 90%. The EC50 in the assay on Rab10 pThr73 [2] was determined as 0.157 µM; in the assay on Rab10 pThr73 [3], 0.282 µM.
